For twelve compounds, IC50 and inhibition results are on record in patent publication EP4617261A1, “2,4,5-TRISUBSTITUTED PYRIMIDINE COMPOUND, PREPARATION METHOD THEREFOR, AND USE THEREOF” (Wenzhou Medical University, priority 2022, dated 2024).

One test relates to MRC-5. Briefly: MTT assay, cell proliferation, MRC-5. The class given is cell-based. As to conditions: Homo sapiens, MRC5, MRC-5 cells, 72 h. Here is the method: (§1) The effect of active compounds on cell proliferation was measured using an MTT assay. An experimental method was described as follows: the compounds under test were first dissolved in DMSO to prepare a stock solution, which was then diluted in gradient with a culture medium of the corresponding cells to prepare test samples, with a final concentration range of the compounds up to 20 µM. Cells in a logarithmic growth phase were seeded into 96-well cell culture plates at an appropriate density, and cultured overnight under corresponding culture conditions, and samples of the compound under test were added and continuously cultured for 72 h.

The subject of another test is H1581. In words: MTT assay, cell proliferation, H1581. Format: cell-based. Conditions: Homo sapiens, NCI-H1581, H1581 cells, 72 h. The procedure:
as §1
A general note: Tetrazolium dyes change colour on reduction, which living cells bring about.

A further test has as its target T1, FGFR1 kinase (Homo sapiens, UniProt P11362).
T1 construct: purchased CARNA
In words: LANCE ULTRA Assay, inhibitory activity on FGFR1 kinase. Format: biochemical. Conditions: for inhibition at 1 µM: read-out: In vitro FGFR1 kinase inhibition rate (%) (Concentration in 1000 nM), Concentration 1000 nM; for inhibition at 0.1 µM: read-out: In vitro FGFR1 kinase inhibition rate (%) (Concentration in 100 nM), Concentration 100 nM. Here is the method:
The inhibitory activity of the compounds on FGFR1 kinase was determined using a LANCE ULTRA Assay. The FGFR1 kinase was purchased from CARNA. Specific method was as follows: the compounds under test, adenosine triphosphate (ATP), specific substrate, and FGFR1 kinase were diluted with kinase diluent. A kinase reaction mixture contained FGFR1, ATP, substrate, HEPES (pH = 7.5), MgCl2, EGTA, and Tween-20. A group without any test compound served as a 100% phosphorylation control, and a group where EDTA was added immediately after the addition of FGFR1 kinase served as a 0% phosphorylation control. The kinase reaction mixture was incubated at room temperature for 1 h, and EDTA was added to terminate the reaction for 5 min, a specific antibody was then added, and the mixture was incubated at room temperature for another 1 h, and excitation light was detected using a PerkinElmer Envision Kinase Reader.

A further test relates to A549. Briefly: MTT assay, cell proliferation, A549. The class given is cell-based. Conditions: Homo sapiens, A549 cells, 72 h. The procedure: An experimental method was described as follows: the compounds under test were first dissolved in DMSO to prepare a stock solution, which was then diluted in gradient with a culture medium of the corresponding cells to prepare test samples, with a final concentration range of the compounds up to 20 µM. Cells in a logarithmic growth phase were seeded into 96-well cell culture plates at an appropriate density, and cultured overnight under corresponding culture conditions, and samples of the compound under test were added and continuously cultured for 72 h.

T1 sequence (P11362 22-822): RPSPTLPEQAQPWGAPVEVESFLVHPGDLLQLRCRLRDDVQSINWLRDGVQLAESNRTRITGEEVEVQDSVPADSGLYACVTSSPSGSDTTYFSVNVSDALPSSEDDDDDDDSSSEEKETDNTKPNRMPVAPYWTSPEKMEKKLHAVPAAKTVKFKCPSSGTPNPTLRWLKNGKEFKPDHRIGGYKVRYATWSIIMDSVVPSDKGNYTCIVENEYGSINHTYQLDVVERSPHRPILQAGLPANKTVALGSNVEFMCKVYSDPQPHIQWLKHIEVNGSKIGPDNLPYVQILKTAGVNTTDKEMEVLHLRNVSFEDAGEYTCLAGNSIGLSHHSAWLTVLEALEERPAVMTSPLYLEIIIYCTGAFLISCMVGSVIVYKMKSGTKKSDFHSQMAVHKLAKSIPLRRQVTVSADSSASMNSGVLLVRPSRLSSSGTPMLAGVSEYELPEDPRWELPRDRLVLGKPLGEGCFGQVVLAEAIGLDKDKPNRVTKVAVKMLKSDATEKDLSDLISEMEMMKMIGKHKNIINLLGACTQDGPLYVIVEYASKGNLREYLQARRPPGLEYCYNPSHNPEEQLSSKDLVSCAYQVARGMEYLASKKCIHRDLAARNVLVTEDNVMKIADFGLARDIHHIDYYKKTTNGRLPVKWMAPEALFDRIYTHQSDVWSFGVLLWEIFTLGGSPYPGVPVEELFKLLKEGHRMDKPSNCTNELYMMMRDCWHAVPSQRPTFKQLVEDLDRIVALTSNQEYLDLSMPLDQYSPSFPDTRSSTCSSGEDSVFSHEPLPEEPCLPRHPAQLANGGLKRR

In the case of `CCN1CCN(c2ccc(Nc3cc(N(C)C(=O)Nc4c(Cl)c(OC)cc(OC)c4Cl)ncn3)cc2)CC1` [BGJ398, reference compound], the IC50 in the test with MRC-5 is 144 µM; in the test with H1581, 0.0867 ± 0.00151 µM.

As to `C=CC(=O)Nc1ccccc1Nc1nc(Nc2ccc(N3CCN(C)CC3)cc2)ncc1Cl` [Compound 9], the inhibition at 1 µM on FGFR1 kinase was 94.9%.

Take `C=CC(=O)Nc1cccc(C)c1Nc1nc(Nc2ccc(N3CCN(C)CC3)cc2)ncc1F` [Compound 10]: the inhibition at 1 µM at FGFR1 kinase was 1.23%.

For `C=CC(=O)Nc1cccc(C)c1Nc1nc(Nc2ccc(N3CCN(C)CC3)cc2)ncc1Cl` [Compound 11, N-(2-((5-chloro-2-((4-(4-methylpiperazine-1-yl)phenyl)amino)pyrimidine-4-yl)amino)-3-methylphenyl)acrylamide], the inhibition at 0.1 µM at FGFR1 kinase was determined as 1.4%.

Consider `C=CC(=O)Nc1cccc(C)c1Nc1nc(Nc2ccc(N3CCN(C)CC3)cc2)ncc1C` [Compound 12], for which the inhibition at 0.1 µM at FGFR1 kinase was -1.1%.

As for `C=CC(=O)Nc1cccc(C)c1Nc1nc(Nc2ccc(N3CCN(C)CC3)cc2)ncc1OC` [Compound 13], the inhibition at 0.1 µM on FGFR1 kinase was -0.1%.

Take `C=CC(=O)Nc1cccc(C)c1Nc1nc(Nc2ccc(N3CCN(C)CC3)cc2)ncc1C(F)(F)F` [Compound 14]: the inhibition at 0.1 µM at FGFR1 kinase was 11.4%.

Regarding `C=CC(=O)Nc1ccc(CCNc2nc(Nc3ccc(N4CCN(C)CC4)cc3)ncc2F)cc1` [Compound 17], the inhibition at 0.1 µM on FGFR1 kinase came to 43%.

As for `C=CC(=O)Nc1ccc(CNc2nc(Nc3ccc(N4CCN(C)CC4)cc3)ncc2F)cc1` [Compound 18], the inhibition at 0.1 µM on FGFR1 kinase was 5.5%.

Regarding `C=CC(=O)Nc1ccc(CCNc2nc(Nc3ccc(N4CCN(C)CC4)cc3)ncc2Cl)cc1` [Compound 33, N-(4-(2-((5-chloro-2-((4-(4-methylpiperazine-1-yl)phenyl)amino)pyrimidine-4-yl)amino)ethyl)phenyl)acrylamide], the IC50 at FGFR1 kinase (read-out: In vitro FGFR1 kinase IC50 value) was 60.7 nM. Also, the inhibition at 0.1 µM on FGFR1 kinase worked out at 66.4%.

Take `C=CC(=O)NC(=O)c1ccc(Nc2nc(Nc3ccc(N4CCN(C)CC4)cc3)ncc2Cl)cc1Cl` [Compound 38, N-acryloyl-2-chloro-4-((5-chloro-2-((4-(4-methylpiperazine-1-yl)phenyl)amino)pyrimidine-4-yl)amino)benzamide]: the inhibition at 0.1 µM on FGFR1 kinase was found to be 50.3%.

As to `C=CC(=O)Nc1ccc(Nc2nc(Nc3ccc(N4C[C@@H](C)N[C@@H](C)C4)c(OC)c3)ncc2Cl)cc1Cl` [Compound 46], the 50% inhibitory concentration (IC50) was determined as 0.84 ± 0.07 µM in the test on MRC-5, 0.018 ± 0.00178 µM in the test with H1581 and 0.38 ± 0.1 µM in the test on A549.

For orientation: IC50 means the concentration at which inhibition is half-maximal.
